Laboratory results from US11266655B2, “Methods and compositions for treating urea cycle disorders” (Camp4 Therapeutics Corporation, priority 2019, dated 2022).
Where two headings read alike, the source gives them in different places.

Legend:
NAGS = format: cell-based, human; conditions: for Relative NAGS level vs Untreated (±Standard Deviation): triplicate (Table 21, FIG. 13)
ASS1 = experiment: RNA-seq of compound-treated primary human hepatocytes, ASS1 expression; format: cell-based
urea cycle genes = experiment: RNA-seq of primary human hepatocytes, compounds that modulate multiple urea cycle-related genes; format: cell-based; conditions: primary human hepatocytes, RNA-seq; for Up-regulated Genes: urea cycle-related genes significantly increased (Table 10)
Procedure: To identify small molecules that modulate urea cycle enzymes, primary human hepatocytes were prepared as a monoculture, and at least one small molecule compound was applied to the cells.
RNA-seq was performed to determine the effects of the compounds on the expression of urea cycle enzymes in hepatocytes. Fold change was calculated by dividing the level of expression in the cell system that had been perturbed by the level of expression in an unperturbed system. Changes in expression having a p-value ≤0.05 were considered significant.
Significance was defined as an FPKM ≥1, a log 2 (fold change) ≥0.5, and a q-value of ≤0.05 for selected gene target.

SLC25A15 = experiment: RNA-seq of compound-treated primary human hepatocytes, SLC25A15 expression; format: cell-based; conditions: for Increase in SLC25A15 gene expression (qualitative): Example 11, relative mRNA vs DMSO; for Fold change (Log 2) vs untreated, SLC25A15 expression / Relative SLC25A15 level vs Untreated (±Standard Deviation): primary human hepatocytes; for Fold change (Log 2) vs untreated, SLC25A15 expression: RNA-seq (Table 8); for Relative SLC25A15 level vs Untreated (±Standard Deviation): triplicate (Table 24, FIG. 16A-B)
ARG1 = experiment: RNA-seq of compound-treated primary human hepatocytes, ARG1 expression; format: cell-based; conditions: for Relative ARGI level vs Untreated (±Standard Deviation) / Fold change (Log 2) vs untreated, ARG1 expression: primary human hepatocytes; for Relative ARGI level vs Untreated (±Standard Deviation): triplicate (Table 17, FIG. 9); for Fold change (Log 2) vs untreated, ARG1 expression: RNA-seq (Table 7)
CPS1 = experiment: RNA-seq of compound-treated primary human hepatocytes, CPS1 expression; format: cell-based; conditions: primary human hepatocytes
[1] = primary human hepatocytes, RNA-seq (Table 6)
[2] = 3 μM, primary human hepatocytes, triplicate (Table 15, FIG. 7)
[3] = 10 μM, primary human hepatocytes, triplicate (Table 15, FIG. 7)
[4] = 0.3 μM, primary human hepatocytes

Cc1cc(C)c(/C=C2\C(=O)Nc3ccccc32)[nH]1 [Semaxanib]
Fold change (Log 2) vs untreated, NAGS expression (NAGS; [1]): 2 Log 2

N#CC(c1ccnc(OCc2ccc(CN3CCOCC3)cc2)n1)c1nc2ccccc2s1 (stereo not drawn) [Bentamapimod]
Relative ASS1 level vs Untreated (±Standard Deviation) (ASS1; 10 µM): 1.90 ± 0.22

CS[C@H]1SC[C@H]2C(=O)N(C)[C@@H](C(C)C)C(=O)OC[C@@H](NC(=O)c3cnc4ccccc4n3)C(=O)N[C@@H](C)C(=O)N(C)[C@@H]1C(=O)N(C)[C@@H](C(C)C)C(=O)OC[C@@H](NC(=O)c1cnc3ccccc3n1)C(=O)N[C@@H](C)C(=O)N2C [Echinomycin]
number of urea cycle genes whose expression was significantly up-regulated (urea cycle genes): six
Increase in SLC25A15 gene expression (qualitative) (SLC25A15): greatest increase

Cc1ccc(F)c(NC(=O)Nc2ccc(-c3cccc4[nH]nc(N)c34)cc2)c1 [Linifanib]
Relative NAGS level vs Untreated (±Standard Deviation) (NAGS; 3 μM, primary human hepatocytes): 1.32 ± 0.04

C[C@]12C[C@H](O)[C@H]3[C@@H](CCC4=CC(=O)CC[C@@]43C)[C@@H]1CC[C@@H]2C(=O)CO [Corticosterone]
Fold change (Log 2) vs untreated, SLC25A15 expression (SLC25A15): 0.96 Log 2

O=C(NCCCn1ccnc1)c1cc(-c2ccco2)on1 [SKL2001]
Fold change (Log 2) vs untreated, NAGS expression (NAGS): 0.95 Log 2

C=C1/C(=C\C=C2/CCC[C@]3(C)[C@@H]([C@H](C)CCCC(C)(C)O)CC[C@@H]23)C[C@@H](O)C[C@@H]1O [Calcitriol]
Fold change (Log 2) vs untreated, NAGS expression (NAGS; [1]): 1.2 Log 2

CC(C)c1cc(CNc2nc(Nc3cc(C4CC4)[nH]n3)cc(N3CCN(C)CC3)n2)on1 [XL228]
Increase in SLC25A15 gene expression (qualitative) (SLC25A15): greatest increase
Relative ASS1 level vs Untreated (±Standard Deviation) (ASS1; 1 μM, primary human hepatocytes, triplicate (Table 15, FIG. 7)): 1.83 ± 0.02
Relative ASS1 level vs Untreated (±Standard Deviation) (ASS1; [2]): 1.45 ± 0.10
Relative ASS1 level vs Untreated (±Standard Deviation) (ASS1; [3]): 2.05 ± 0.00
Relative ARGI level vs Untreated (±Standard Deviation) (ARG1; 0.3 μM): 1.47 ± 0.11
Relative ARGI level vs Untreated (±Standard Deviation) (ARG1; 1 μM): 2.05 ± 0.11
Relative ARGI level vs Untreated (±Standard Deviation) (ARG1; 3 μM): 2.15 ± 0.04
increase in ARG1 gene expression (Tables 17, 18, FIG. 9, 10) (ARG1; Example 11, relative mRNA vs DMSO): greatest increase

N#CCNC(=O)c1ccc(-c2ccnc(Nc3ccc(N4CCOCC4)cc3)n2)cc1 [Momelotinib]
number of urea cycle genes whose expression was significantly up-regulated (urea cycle genes): three
Up-regulated Genes (urea cycle genes): CPS1, OTC, ARG1

NC(=O)c1ccc(I)c([N+](=O)[O-])c1 [Iniparib]
Relative ARGI level vs Untreated (±Standard Deviation) (ARG1; 3 μM): 1.32 ± 0.15
Relative NAGS level vs Untreated (±Standard Deviation) (NAGS; [4]): 1.41 ± 0.00
Relative CPS1 level vs Untreated (±Standard Deviation) (CPS1; 3 μM, triplicate (Table 19, FIG. 11)): 1.44 ± 0.01

CCCC(=O)O[C@@H]1[C@@H](C)[C@@]2(O)[C@@H](C=C(CO)C[C@]3(O)C(=O)C(C)=C[C@@H]23)[C@@H]2C(C)(C)[C@]12OC(=O)CCC [Phorbol 12, 13-dibutyrate]
Fold change (Log 2) vs untreated, NAGS expression (NAGS; [1]): 0.62 Log 2

C[C@]12C=CC(=O)C=C1CC[C@@H]1[C@@H]2C(=O)C[C@@]2(C)[C@H]1CC[C@]2(O)C(=O)CO [prednisone]
number of urea cycle genes whose expression was significantly up-regulated (urea cycle genes): three
Up-regulated Genes (urea cycle genes): CPS1, NAGS, ARG1
Fold change (Log 2) vs untreated, NAGS expression (NAGS; [1]): 1 Log 2

TNF-a
Fold change (Log 2) vs untreated, ARG1 expression (ARG1): 1.87 Log 2

CCn1c(=O)c(-c2ccc(-c3cncs3)cc2Cl)cc2cnc(Nc3ccc(N4CCN(C)CC4)cc3)nc21 [FRAX597]
number of urea cycle genes whose expression was significantly up-regulated (urea cycle genes): five
Up-regulated Genes (urea cycle genes): CPS1, ASS1, OTC, ARG1, SLC25A15

CCN(CC)CCNC(=O)c1c(C)[nH]c(/C=C2\C(=O)Nc3ccc(F)cc32)c1C [Sunitinib]
Relative SLC25A15 level vs Untreated (±Standard Deviation) (SLC25A15; 0.3 μM): 1.32 ± 0.08
Relative SLC25A15 level vs Untreated (±Standard Deviation) (SLC25A15; 3 μM): 2.36 ± 0.20
Relative SLC25A15 level vs Untreated (±Standard Deviation) (SLC25A15; 10 μM): 2.43 ± 0.29
Relative ASS1 level vs Untreated (±Standard Deviation) (ASS1; [2]): 2.25 ± 0.45
Relative ASS1 level vs Untreated (±Standard Deviation) (ASS1; [3]): 2.70 ± 0.37
Relative ARGI level vs Untreated (±Standard Deviation) (ARG1; 10 μM): 1.36 ± 0.01
Relative NAGS level vs Untreated (±Standard Deviation) (NAGS; [4]): 1.40 ± 0.03
Relative NAGS level vs Untreated (±Standard Deviation) (NAGS; 1 μM, primary human hepatocytes): 1.63 ± 0.42

B1: Wnt3 a (protein, UniProt P56704 19-352, looked up)
Protein Wnt-3a: SYPIWWSLAVGPQYSSLGSQPILCASIPGLVPKQLRFCRNYVEIMPSVAEGIKIGIQECQHQFRGRRWNCTTVHDSLAIFGPVLDKATRESAFVHAIASAGVAFAVTRSCAEGTAAICGCSSRHQGSPGKGWKWGGCSEDIEFGGMVSREFADARENRPDARSAMNRHNNEAGRQAIASHMHLKCKCHGLSGSCEVKTCWWSQPDFRAIGDFLKDKYDSASEMVVEKHRESRGWVETLRPRYTYFKVPTERDLVYYEASPNFCEPNPETGSFGTRDRTCNVSSHGIDGCDLLCCGRGHNARAERRREKCRCVFHWCCYVSCQECTRVYDVHTCK
Fold change (Log 2) vs untreated, SLC25A15 expression (SLC25A15): 0.7 Log 2

B2: GDF10 (BMP3b): member of the BMP family and the TGF-B superfamily (protein, UniProt P55107 369-478, looked up)
Growth/differentiation factor …: QWDEPRVCSRRYLKVDFADIGWNEWIISPKSFDAYYCAGACEFPMPKIVRPSNHATIQSIVRAVGIIPGIPEPCCVPDKMNSLGVLFLDENRNVVLKVYPNMSVDTCACR
CPS1 expression, Fold change (Log 2) vs untreated (CPS1; RNA-seq): 1.66 Log 2

B3: GDF 10 (BMP3b) (protein, UniProt P55107 369-478, looked up)
Growth/differentiation factor …: QWDEPRVCSRRYLKVDFADIGWNEWIISPKSFDAYYCAGACEFPMPKIVRPSNHATIQSIVRAVGIIPGIPEPCCVPDKMNSLGVLFLDENRNVVLKVYPNMSVDTCACR
Fold change (Log 2) vs untreated, ARG1 expression (ARG1): 0.97 Log 2
